Measurements as given in article PMC10065276, “Enhanced therapeutic window for antimicrobial Pept-ins by investigating their structure-activity relationship” (PLOS ONE, 2023).
≈ marks a conversion by molar mass, not a printed value. Where “and” joins values, the source holds several entries; their conditions need not be identical. Identical values can stand only once. Like-named read-outs stand apart in the source and are kept apart here. Positions of bridges follow the written chain, without caps; N, C: chain ends. Residues, ends and D or L forms follow the SMILES beside them.

Assays:
E. coli BL21 = conditions: BL21, 17 h
Summary of the method: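 EUCAST broth microdilution in Mueller-Hinton medium; end-exponential culture diluted to 0.005 McF (~1.5x10^6 CFU/mL) before 1:1 mixing with two-fold peptide dilutions (0.75 to 100 μg/mL), triplicates.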

[1] = tested on: E. coli XL1-Red (ancestor strain); format: cell-based; conditions: XL1-Red (ancestor strain, 17 h)
Description: In a previous study, we generated a P2-resistant strain by subculturing the hypermutable E. coli XL1-Red, which has a 5 000-fold higher mutation rate than wildtype bacteria, at the sub-MIC concentration of P2 for 27 days. […] The MIC of a few categories of P2 variants were determined to investigate whether P2 antimicrobial activity can be restored against P2-resistant bacteria via structure modification. […] The amount of intracellularly accumulated P2_VFV in P2-resistant strains was much higher than P2 (Fig 5A), which was sufficient to induce cell death (FAM^+Draq7^+ cells) (Fig 5B). […] (Fig 5C).
(§1) The peptide MIC was determined via the broth microdilution assay according to the EUCAST guideline, using 96-well polystyrene flat-bottom microtiter plates (BD Biosciences). Briefly, a single colony was inoculated in 5 mL Mueller-Hinton (MH) medium and incubated, while shaking at 37°C, to the end-exponential growth phase. The bacterial culture was subsequently diluted to 0.005 McFarland (McF) (~1.5x10^6 CFU/mL) with fresh MH medium. Two-fold serial peptide-dilutions were prepared in 50 μL MH medium resulting in a concentration range of 0.75 to 100 μg/mL (at least three wells for each concentration). […] The MIC was determined as the lowest peptide concentration without visible bacterial growth.

[2] = tested on: E. coli ATCC clinical isolates; test: microbe, parasite or virus in culture; format: cell-based
From the text: To address the emerging antibiotic resistance issue, it is not only required to develop active antibiotics against wildtype bacteria, but also against the clinically isolated multidrug-resistant strains. Therefore, we determined whether P2 variants with a 4-fold lower MICs (P2_A5F, V7Y (P2), P2_H12_GV, P2_H12_PEG) (S12 Table) will also show improved antimicrobial activity against these multidrug-resistant strains. Since a high net positive charge could carry inherent developability challenges, we further explored the therapeutic potential of P2 variants with reduced net charge (P2_4R_GV and P2_4R_L) (S12 Table) by determining their antimicrobial activity against these clinically isolated multidrug-resistant strains. The mode of action of these derivatives remains to be inducing protein aggregation in bacteria as shown by the formation of IBs stained by pFTAA after Pept-in treatment (P2, P2-4R-GV, P2_A5F, V7Y (P2), P2_H12_GV, P2_H12_PEG) (S6A Fig) and the presence of a large number of proteins with different molecular weights in purified IBs as shown by the Coomassie staining (S6B Fig), in contrast to the absence of pFTAA staining (S6A Fig) and the presence of only two faint protein bands (S6B Fig) for buffer and control peptide treated bacteria. For clinically isolated multidrug-resistant strains, in addition to the 34 clinical isolates of E. coli ATCC, we added 12 Acinetobacter baumannii (A. baumannii) isolates and 12 Klebsiella pneumoniae (K. pneumoniae) isolates to broaden the selection of the bacterial spectrum.
as §1, with “medium.” for “medium. Two-fold serial peptide-dilutions were prepared in 50 μL MH medium resulting in a concentration range of 0.75 to 100 μg/mL (at least three wells for each concentration).”

[3] = tested on: K. pneumoniae clinical isolates; format: cell-based, Klebsiella pneumoniae; conditions: 17 h
From the text: To address the emerging antibiotic resistance issue, it is not only required to develop active antibiotics against wildtype bacteria, but also against the clinically isolated multidrug-resistant strains. Therefore, we determined whether P2 variants with a 4-fold lower MICs (P2_A5F, V7Y (P2), P2_H12_GV, P2_H12_PEG) (S12 Table) will also show improved antimicrobial activity against these multidrug-resistant strains. Since a high net positive charge could carry inherent developability challenges, we further explored the therapeutic potential of P2 variants with reduced net charge (P2_4R_GV and P2_4R_L) (S12 Table) by determining their antimicrobial activity against these clinically isolated multidrug-resistant strains. […]
The peptide MIC was determined via the broth microdilution assay according to the EUCAST guideline, using 96-well polystyrene flat-bottom microtiter plates (BD Biosciences). […] The MIC was determined as the lowest peptide concentration without visible bacterial growth.

MIC ([2]; Escherichia coli, S12 Table, each table row is one E. coli clinical isolate (34 isolates), highest concentration tested 32 μg/mL, read-out: MIC) [µg/mL]	MIC ([2]; S12 Table, each table row is one E. coli clinical isolate (34 isolates), highest concentration tested 32 μg/mL)	SMILES	BL21 MIC (E. coli BL21) [µg/mL]	BL21 MIC, SS bond (E. coli BL21) [µg/mL]	BL21 MIC, no SS bond (E. coli BL21) [µg/mL]	MIC, Ancestor [1] [µg/mL]	MIC ([2]; ATCC clinical isolates, 17 h) [µg/mL]	MIC [3] [µg/mL]
–	–	CC(C)C[C@H](NC(=O)CNC(=O)[C@H](CCCNC(=N)N)NC(=O)[C@@H]1CSSC[C@H](NC(=O)[C@@H](NC(=O)[C@H](CC(C)C)NC(=O)[C@H](C)NC(=O)[C@H](CC(C)C)NC(=O)CNC(=O)[C@H](CC(C)C)NC(=O)CNC(=O)[C@@H](N)CCCNC(=N)N)C(C)C)C(=O)N[C@@H](CCCNC(=N)N)C(=O)N[C@@H](CCCNC(=N)N)C(=O)NCC(=O)N[C@@H](C(C)C)C(=O)N1)C(=O)NCC(=O)N[C@@H](CC(C)C)C(=O)N[C@@H](C)C(=O)N[C@@H](CC(C)C)C(=O)N[C@H](C(=O)N[C@@H](CCCNC(=N)N)C(=O)N[C@@H](CCCNC(=N)N)C(=O)O)C(C)C [Peptide P2_H12_GV] (H-RGLGLALVCRRGVCRGLGLALVRR-OH; disulfide 9-14)	3.13	3.13	6.25	3.13 (≈ 1.22 µM)	–	–
1 (≈ 2.14 µM)	0.5 µg/mL and >1 µg/mL	NC[C@H]1O[C@H](O[C@H]2[C@H](O)[C@@H](O[C@H]3O[C@H](CO)[C@@H](O)[C@H](N)[C@H]3O)[C@H](N)C[C@@H]2N)[C@H](N)C[C@@H]1O [Tobramycin]	–	–	–	–	–	–
–	–	CC(C)C[C@@H]1NC(=O)CNC(=O)[C@H](CCCNC(=N)N)NC(=O)[C@H](C(C)C)NC(=O)[C@H](CCCNC(=N)N)NC(=O)[C@H](CCCNC(=N)N)NC(=O)[C@H](C(C)C)NC(=O)[C@H](CC(C)C)NC(=O)[C@H](C)NC(=O)[C@H](CC(C)C)NC(=O)CNC(=O)[C@H](CC(C)C)NC(=O)[C@@H](NC(=O)[C@@H](N)CCCNC(=N)N)CSSC[C@@H](C(=O)O)NC(=O)[C@H](CO)NC(=O)CNC(=O)[C@H](CCCNC(=N)N)NC(=O)[C@H](CCCNC(=N)N)NC(=O)[C@H](CC(C)C)NC(=O)[C@H](C)NC(=O)[C@H](CC(C)C)NC(=O)CNC1=O [Peptide P2_H6] (H-RCLGLALVRRVRGLGLALRRGSC-OH; disulfide 2-23)	–	6.25	12.5	3.13 (≈ 1.25 µM)	–	–
–	–	CC(C)C[C@H](NC(=O)CNC(=O)[C@H](CCCNC(=N)N)NC(=O)[C@@H]1CCCN1C(=O)[C@H](CCCNC(=N)N)NC(=O)[C@H](CCCNC(=N)N)NC(=O)[C@H](Cc1ccc(O)cc1)NC(=O)[C@H](CC(C)C)NC(=O)[C@H](C)NC(=O)[C@H](CC(C)C)NC(=O)CNC(=O)[C@H](CC(C)C)NC(=O)CNC(=O)[C@@H](N)CCCNC(=N)N)C(=O)NCC(=O)N[C@@H](CC(C)C)C(=O)N[C@@H](C)C(=O)N[C@@H](CC(C)C)C(=O)N[C@@H](Cc1ccc(O)cc1)C(=O)N[C@@H](CCCNC(=N)N)C(=O)N[C@@H](CCCNC(=N)N)C(=O)O [V7Y (P2)] (H-RGLGLALYRRPRGLGLALYRR-OH)	3.13	–	–	–	8 (≈ 3.29 µM)	8 (≈ 3.29 µM)
